{"source": "patent US9840508B2", "about": "“N-acyl-(3-substituted)-(8-methyl)-5,6-dihydro-[1,2,4]triazolo[4,3-a] pyrazines as selective NK-3 receptor antagonists, pharmaceutical composition, methods for use in NK-3 receptor-mediated disorders” (EUROSCREEN SA, priority 2013, dated 2017)", "key": {"human NK-3 receptor": {"biological_target": "human NK-3 receptor (Homo sapiens (Human), UniProt P29371)", "sequence (P29371 whole entry)": "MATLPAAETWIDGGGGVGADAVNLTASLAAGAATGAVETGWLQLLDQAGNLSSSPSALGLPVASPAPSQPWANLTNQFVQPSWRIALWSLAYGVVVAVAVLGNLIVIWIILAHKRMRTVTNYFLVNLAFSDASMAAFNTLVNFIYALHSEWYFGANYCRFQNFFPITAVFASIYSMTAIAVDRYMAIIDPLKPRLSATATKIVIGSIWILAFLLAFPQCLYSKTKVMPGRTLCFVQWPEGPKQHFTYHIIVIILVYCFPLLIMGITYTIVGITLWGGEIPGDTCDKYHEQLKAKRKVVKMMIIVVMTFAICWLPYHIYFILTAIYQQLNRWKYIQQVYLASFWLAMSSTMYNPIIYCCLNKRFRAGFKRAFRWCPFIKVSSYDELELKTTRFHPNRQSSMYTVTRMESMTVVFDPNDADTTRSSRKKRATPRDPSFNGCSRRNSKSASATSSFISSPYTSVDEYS", "assay": "Aequorin functional assay with human NK-3 receptor (antagonist testing)", "type": "cell-based", "conditions": "CHO cells expressing human NK-3 receptor; agonist NKA at EC80 (3 nM); read-out: Functional assay: Aequorin assay with human NK-3 receptor hNK-3 - AEQ (antagonist IC50)", "description": "Aequorin Assay with Human NK-3 Receptor\nChanges in intracellular calcium levels are a recognized indicator of G protein-coupled receptor activity. The efficacy of compounds of the invention to inhibit NKA-mediated NK-3 receptor activation was assessed by an in vitro Aequorin functional assay. Chinese Hamster Ovary recombinant cells expressing the human NK-3 receptor and a construct that encodes the photoproteinapoaequorin were used for this assay. In the presence of the cofactor coelenterazine, apoaequorin emits a measurable luminescence that is proportional to the amount of intracellular (cytoplasmic) free calcium.\nThe antagonist activity of compounds of the invention is measured following pre-incubation (3 minutes) of the compound (at various concentrations) with the cells, followed by addition of the reference agonist (NKA) at a final concentration equivalent to the EC80 (3 nM) and recording of emitted light (FDSS 6000 Hamamatsu) over the subsequent 90-second period. The intensity of the emitted light is integrated using the reader software. Compound antagonist activity is measured based on the concentration-dependent inhibition of the luminescence response to the addition of Neurokinin A.\nThe IC50 values shown in Table 2 indicate that compounds of the invention are potent NK-3 antagonist compounds."}, "plasma protein": {"test_system": "plasma protein", "assay": "Determination of plasma protein binding (rapid equilibrium dialysis)", "type": "in vitro ADME", "conditions": "4 hours at 37° C.", "from_the_text": "Determination of Plasma Protein Binding\nThe pharmacokinetic and pharmacodynamic properties of chemicals/drugs are largely a function of the reversible binding of chemicals to plasma or serum proteins. Generally, only the unbound or “free fraction” of a drug is available for diffusion or transport across cell membranes, and for interaction with a pharmacological/toxicological target. Consequently, the extent of the plasma protein binding (PPB) of a compound influences its action as well as its distribution and elimination.\nThe determination of plasma protein binding (PPB) of a compound is enabled by equilibrium dialysis, an accepted and standard method for reliable estimation of the non-bound drug fraction in plasma. RED (Rapid Equilibrium Dialysis) device insert is made of two side-by-side chambers separated by an O-ring-sealed vertical cylinder of dialysis membrane (MWCO˜8,000). Plasma containing drug (at 5 μM or blood concentrations otherwise corresponding to efficacious doses, if known) is added to one chamber while buffer is added to the second. After 4 hours incubation at 37° C. under shaking, an aliquot is removed from each chamber and analyzed by a LC-MS/MS procedure enables the determination of both free and bound drug.\nThe percentages provided in Table 4 represent for the compounds of the invention the bound drug fraction to the plasma protein. The “free fraction” may be calculated as 100%−% rPPB (i.e. the complementary percentage of that disclosed in Table 4, corresponding to the drug concentration that is unbound and therefore available to engage biological target and elicit pharmacological activity)."}, "circulating LH levels": {"test_system": "circulating LH levels", "assay": "Castrated male rat model, circulating luteinizing hormone (LH), oral dosing", "type": "in vivo", "conditions": "castrated male SD rat; single oral dose less than or equal to 30 mg/kg; p<0.05", "description": "In vivo Assay to Assess Compound Activity in Rat (Oral Dosing)\nThe effect of compounds of the invention to inhibit luteinizing hormone (LH) secretion is determined by the following biological studies.\nCastrated Male Rat Model to Assess the Effect of Compound of Invention on Circulating Levels of Luteinizing Hormone (LH)\nIn humans and rodents, castration is well-precedented to permit heightened, persistent GnRH signaling and consequent elevation of circulating LH. Thus, a castrated rat model is used to provide a broad index for measurement of LH inhibition as a marker of test compound inhibition of the GnRH signaling pathway.\nCastrated adult male Sprague-Dawley (SD) rats (150-175 g) were purchased from Janvier (St Berthevin, France). All animals were housed 2 per cage in a temperature-controlled room (22±2° C.) and 50±5% relative humidity with a 12 hour/12 hour light/dark cycles (lights off at 6 h00 pm). The animals were allowed 3 weeks of postoperative recovery prior to study. Animals were handled on a daily basis. Standard diet and tap water were provided ad libitum. Animal cage litters were changed once a week. […]\nAfter basal sampling (TO) a single dose of compounds of the invention or vehicle was administrated orally to rats. […] Serum LH levels were determined using radioimmunoassay kit from RIAZEN—Rat LH, Zentech (Liège, Belgium). […]"}}, "data": [{"smiles": "Cc1ccc(-c2nnc3n2CCN(C(=O)c2ccc(F)cc2)[C@@H]3C)o1", "note": "[Compound 1, (R)-(4-fluorophenyl)(8-methyl-3-(5-methylfuran-2-yl)-5,6-dihydro-[1,2,4]triazolo[4,3-a]pyrazin-7(8H)-yl)methanone]", "values": [{"measurement": "IC50", "setting": "human NK-3 receptor", "value": 60, "unit": "nM"}, {"measurement": "Exposure (% rPPB), bound drug fraction to the plasma protein", "setting": "plasma protein", "value": 28, "unit": "%"}, {"measurement": "Suppression of circulating LH levels", "setting": "circulating LH levels", "value": "significantly suppressed circulating LH levels"}]}, {"smiles": "C[C@@H]1c2nnc(-c3csc(C(F)(F)F)n3)n2CCN1C(=O)c1ccc(F)cc1", "note": "[Compound 3, (R)-(4-fluorophenyl)(8-methyl-3-(2-(trifluoromethyl)thiazol-4-yl)-5,6-dihydro-[1,2,4]triazolo[4,3-a]pyrazin-7(8H)-yl)methanone]", "values": [{"measurement": "IC50", "setting": "human NK-3 receptor", "value": 20, "unit": "nM"}, {"measurement": "Exposure (% rPPB), bound drug fraction to the plasma protein", "setting": "plasma protein", "value": 50, "unit": "%"}]}]}
